# According to article PMC10490032, “From Monoamine Oxidase Inhibition to Antiproliferative Activity: New Biological Perspectives for Polyamine Analogs” (Molecules, 2023):
# Columns and labels:
# [1] = test system: LN-229 glioblastoma cell line; test: Inhibition growth assay, Trypan blue exclusion; assay type: cell-based, human; settings: LN-229, 48 h of incubation, mean ± SD of five independent experiments in duplicate
# Description: On this basis, we investigated the antiproliferative effect of compounds 1–7 on LN-229, a human glioblastoma cell line. Compound 1 and the well-known antitumor drug doxorubicin were taken as references. […] The data in Table 3 support the lack of cytotoxicity of compound 1.
# The LN-229 (human glioblastoma) was purchased from the American Type Culture Collection (ATCC) and cultured in DMEM (D2902, Sigma Chemical Co., St. Louis, MO, USA) supplemented with 3.5 g/L of glucose and 5% heat-inactivated fetal calf serum (FCS) (F7524, Sigma Chemical Co.), respectively. A total of 100 U/mL of penicillin, 100 μg/mL of streptomycin, and 0.25 μg/mL of amphotericin B (Sigma Chemical Co.) were added to the medium. Cells were cultured at 37 °C in a humidified atmosphere incubator containing 5% carbon dioxide in air.
# Cells (3–6 × 10^4/well) were seeded into a 24-well cell culture plate; after 24 h, different concentrations of the test compounds or reference drug were added. After 48 h of incubation in standard conditions, the cell viability was determined by using a Trypan blue exclusion assay. Briefly, cells were detached by using a […] and 0.3 mM EDTA solution in PBS and stained with 0.1% Trypan blue solution in PBS. Unstained viable cells were immediately counted in a Burker chamber. The percentage of viable cells was calculated with respect to the untreated control culture. […] The goodness of the fit was expressed by the r^2 coefficient, and the best fit report included the analysis of variance corrected for the mean of the observations with the p values (p < 0.005 for all the tested compounds). Data are the means ± SD of at least five independent experiments in duplicate.
# [2] = test system: MAO activity in LN-229 lysates; test: MAO activity in LN-229 cell lysates, kynuramine assay; settings: for Residual MAO activity in lysates: fraction of control
# human recombinant MAO B = molecular target: T1, human recombinant MAO B (Homo sapiens, UniProt P27338); test: MAO B inhibition, kynuramine assay (4-hydroxyquinoline fluorescence); settings: for Reversibility of MAO B inhibition: 5 μM compound for 25 min, diluted 50 times, 300 μM kynuramine; for Mode of inhibition of MAO B: Lineweaver–Burk plots / global fit (compound 7: Figure S1); for Time dependence of MAO B inhibition (Vo/VI ratio): pre-incubation 0 to 30 min with 2.5 μM compound
# T1 sequence (P27338 1-520): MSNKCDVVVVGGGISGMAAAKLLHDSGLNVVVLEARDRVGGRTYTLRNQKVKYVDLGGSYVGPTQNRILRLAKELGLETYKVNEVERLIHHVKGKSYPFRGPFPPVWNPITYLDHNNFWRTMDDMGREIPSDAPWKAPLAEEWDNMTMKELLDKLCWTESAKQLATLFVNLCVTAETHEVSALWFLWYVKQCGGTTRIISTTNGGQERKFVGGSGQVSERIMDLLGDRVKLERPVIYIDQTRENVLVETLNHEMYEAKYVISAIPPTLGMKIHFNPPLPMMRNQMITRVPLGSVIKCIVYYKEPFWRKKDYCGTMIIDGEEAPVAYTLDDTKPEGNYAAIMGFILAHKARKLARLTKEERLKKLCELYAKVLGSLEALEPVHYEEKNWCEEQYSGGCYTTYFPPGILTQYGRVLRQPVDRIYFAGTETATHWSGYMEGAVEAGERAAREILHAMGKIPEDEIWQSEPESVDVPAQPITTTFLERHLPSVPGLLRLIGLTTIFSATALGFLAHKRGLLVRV
# human recombinant MAO A = molecular target: T2, human recombinant MAO A (Homo sapiens, UniProt P21397); test: MAO A inhibition, kynuramine assay (4-hydroxyquinoline fluorescence); settings: for Reversibility of MAO A inhibition: 5 μM compound for 25 min, diluted 50 times, 300 μM kynuramine; for Mode of inhibition of MAO A: Lineweaver–Burk plots / global fit; for Time dependence of MAO A inhibition (Vo/VI ratio): pre-incubation 0 to 30 min with 2.5 μM compound
# T2 sequence (P21397 1-527): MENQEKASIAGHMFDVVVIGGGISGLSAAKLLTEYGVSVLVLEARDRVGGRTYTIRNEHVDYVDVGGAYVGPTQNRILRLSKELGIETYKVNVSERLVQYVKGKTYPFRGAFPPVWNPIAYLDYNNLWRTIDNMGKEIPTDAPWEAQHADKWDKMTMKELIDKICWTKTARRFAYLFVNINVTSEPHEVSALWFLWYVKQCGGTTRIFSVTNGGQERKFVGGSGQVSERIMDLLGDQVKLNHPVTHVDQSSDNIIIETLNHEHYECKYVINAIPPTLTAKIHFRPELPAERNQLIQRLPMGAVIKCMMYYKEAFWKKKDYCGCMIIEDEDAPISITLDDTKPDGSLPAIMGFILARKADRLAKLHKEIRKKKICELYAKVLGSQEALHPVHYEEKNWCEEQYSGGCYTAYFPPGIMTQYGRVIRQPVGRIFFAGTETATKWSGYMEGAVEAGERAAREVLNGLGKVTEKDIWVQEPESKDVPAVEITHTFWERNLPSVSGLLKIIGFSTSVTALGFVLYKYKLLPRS
# human VAP-1 [3] = molecular target: T3, human VAP-1 (Homo sapiens, UniProt Q16853); test: VAP-1 amine oxidase activity, Amplex Red/horseradish peroxidase assay, benzylamine as substrate
# T3 sequence (Q16853 1-763): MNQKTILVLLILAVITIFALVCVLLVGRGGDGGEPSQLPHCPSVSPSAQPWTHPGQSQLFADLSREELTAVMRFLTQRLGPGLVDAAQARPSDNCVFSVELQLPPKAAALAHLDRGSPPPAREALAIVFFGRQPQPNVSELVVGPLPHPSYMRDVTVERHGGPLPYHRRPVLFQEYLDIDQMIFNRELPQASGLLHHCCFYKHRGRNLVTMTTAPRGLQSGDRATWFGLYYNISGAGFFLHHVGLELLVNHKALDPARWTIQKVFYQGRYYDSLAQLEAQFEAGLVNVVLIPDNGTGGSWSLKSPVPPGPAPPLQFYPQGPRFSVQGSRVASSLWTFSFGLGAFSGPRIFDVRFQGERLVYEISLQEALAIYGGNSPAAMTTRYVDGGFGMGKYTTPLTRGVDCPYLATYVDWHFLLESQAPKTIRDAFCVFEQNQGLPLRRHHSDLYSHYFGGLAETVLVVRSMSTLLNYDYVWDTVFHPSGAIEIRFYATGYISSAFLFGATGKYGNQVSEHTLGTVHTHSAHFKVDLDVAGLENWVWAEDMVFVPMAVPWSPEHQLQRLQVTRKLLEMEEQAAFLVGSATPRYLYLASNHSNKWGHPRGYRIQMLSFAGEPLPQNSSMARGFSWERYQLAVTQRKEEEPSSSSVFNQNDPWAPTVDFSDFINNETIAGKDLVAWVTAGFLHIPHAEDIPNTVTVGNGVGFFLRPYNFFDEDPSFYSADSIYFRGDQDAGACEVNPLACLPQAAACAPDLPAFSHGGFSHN
# human VAP-1 [4] = molecular target: T3, human VAP-1; parameters: Biothie Therapies Cor; (Turku, Finland), gift; method as in PMID 21858471, PMID 30829081; settings: previous studies ref 35, 40; cited from earlier work
# murine SMOX = murine SMOX (Mus musculus, UniProt Q99K82); parameters: made in house; host or cells: E. coli BL21 DE3; settings: previous studies ref 35, 40; cited from earlier work
# [5] = inhibitor 0.2 μM, 20 μM kynuramine
# [6] = kynuramine 20 μM, compound 0.05–8 μM
# [7] = KI (inhibition constant for the free enzyme) vs. MAO A, global fit, mixed model, inhibitor 0.25–2 μM, kynuramine varied
# [8] = KIES (dissociation constant for the enzyme–substrate complex) vs. MAO A, global fit, mixed model, inhibitor 0.25–2 μM, kynuramine varied
# [9] = MAO A Ki, human recombinant MAO A, kynuramine 10 μM, from slope of Vo/VI vs compound concentration (1.25–40 μM), mean ± S.D.
# [10] = KI (inhibition constant for the free enzyme) vs. MAO B, global fit, mixed model, inhibitor 0.25–2 μM, kynuramine varied
# [11] = KIES (dissociation constant for the enzyme–substrate complex) vs. MAO B, global fit, mixed model, inhibitor 0.25–2 μM, kynuramine varied
# [12] = MAO B Ki, human recombinant MAO B, kynuramine 10 μM, from slope of Vo/VI vs compound concentration (1.25–40 μM), mean ± S.D.
# [13] = inhibitor 5 nM, 15 min pre-incubation, 300 μM kynuramine
# Chain of murine SMOX (Q99K82 whole entry): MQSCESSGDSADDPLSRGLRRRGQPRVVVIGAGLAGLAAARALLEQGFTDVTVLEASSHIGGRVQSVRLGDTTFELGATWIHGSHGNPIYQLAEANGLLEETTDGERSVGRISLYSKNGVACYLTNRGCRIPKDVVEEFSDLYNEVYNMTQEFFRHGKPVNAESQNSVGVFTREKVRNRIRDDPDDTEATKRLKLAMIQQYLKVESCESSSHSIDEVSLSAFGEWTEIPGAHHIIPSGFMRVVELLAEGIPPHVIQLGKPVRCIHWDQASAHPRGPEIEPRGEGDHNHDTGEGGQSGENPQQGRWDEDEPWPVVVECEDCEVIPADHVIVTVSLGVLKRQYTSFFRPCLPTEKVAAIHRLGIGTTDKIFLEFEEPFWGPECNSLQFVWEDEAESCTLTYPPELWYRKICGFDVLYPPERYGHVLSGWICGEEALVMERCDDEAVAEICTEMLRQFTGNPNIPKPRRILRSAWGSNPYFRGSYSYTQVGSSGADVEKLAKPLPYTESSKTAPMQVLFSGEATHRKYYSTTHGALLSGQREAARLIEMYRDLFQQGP
compound,measurement,setting,value
"COc1cccc2c1C(=O)c1c(O)c3c(c(O)c1C2=O)C[C@@](O)(C(=O)CO)C[C@@H]3O[C@H]1C[C@H](N)[C@H](O)[C@H](C)O1 [DOXO, doxorubicin, reference compound]",GI50,"[1]; Homo sapiens, LN-229, 48 h",0.012 ± 0.004 µM
C[C@H](NCc1ccc(OCc2cccc(F)c2)cc1)C(N)=O [Safinamide],Residual MAO activity in lysates,[2]; [5],0.66 ± 0.04
"NCCC(=O)c1ccccc1N [kynuramine, reference compound]",Km,"[2]; read-out: apparent KM in LN-229 lysates, substrate, Michaelis–Menten fit",25 ± 3 µM
same,Km,"human recombinant MAO B; read-out: KM for MAO B, substrate, human recombinant MAO B",27 ± 4 µM
COc1ccccc1CNCCCCCCNc1ccc(CCc2ccc(NCCCCCCNCc3ccccc3OC)cc2)cc1 [Compound 4],GI50,"[1]; Homo sapiens, LN-229, 48 h",< 1 µM
same,GI50,[1],0.9 ± 0.2 µM
same,Effect on MAO activity in LN-229 lysates,[2]; [6],not affected
same,Reversibility of MAO A inhibition,human recombinant MAO A,full reversibility
same,Ki,human recombinant MAO A; [7],0.62 ± 0.11 µM
same,Ki,human recombinant MAO A; [8],11 ± 2 µM
same,Mode of inhibition of MAO A,human recombinant MAO A,mainly competitive/mixed
same,Ki,human recombinant MAO A; [9],0.9 ± 0.2 µM
same,Time dependence of MAO A inhibition (Vo/VI ratio),human recombinant MAO A; kynuramine 10 μM,no time dependence of the inhibition was observed
same,Reversibility of MAO B inhibition,human recombinant MAO B,full reversibility
same,Ki,human recombinant MAO B; [10],0.31 ± 0.05 µM
same,Ki,human recombinant MAO B; [11],15 ± 2 µM
same,Mode of inhibition of MAO B,human recombinant MAO B,mainly competitive/mixed
same,Ki,human recombinant MAO B; [12],0.3 ± 0.1 µM
same,Time dependence of MAO B inhibition (Vo/VI ratio),human recombinant MAO B; kynuramine 10 μM,no time dependence of the inhibition was observed
"C#CCN(C)CCCOc1ccc(Cl)cc1Cl [Clorgyline, clorgyline]",Residual MAO activity in lysates,[2]; [13],0.34 ± 0.10
"C#CCN(C)Cc1ccccc1 [Pargyline, pargyline]",Residual MAO activity in lysates,"[2]; inhibitor 0.5 mM, 15 min pre-incubation, 300 μM kynuramine",0.03 ± 0.02
same,Residual activity in lysates after pre-incubation,"[2]; pargyline pre-incubation 15 min, kynuramine 300 μM",about 3%
"COc1ccc2c(c1)[nH]c1c(C)nccc12 [Harmine, reference compound]",Residual MAO activity in lysates,[2]; [5],0.37 ± 0.08
same,Ki,"human recombinant MAO B; MAO B Ki, human recombinant MAO B, kynuramine 10 μM, […], mean ± S.D.",> 10 µM
"C#CCN(C)[C@H](C)Cc1ccccc1 [Deprenyl, deprenyl]",Residual MAO activity in lysates,[2]; [13],0.74 ± 0.04
COc1ccccc1CNCCCCCCN1C(=O)c2ccc3c4c(ccc(c24)C1=O)C(=O)N(CCCCCCNCc1ccccc1OC)C3=O [Compound 7],GI50,"[1]; Homo sapiens, LN-229, 48 h",0.4 ± 0.1 µM
same,Ki,human recombinant MAO A; [9],3.2 ± 0.2 µM
same,Mode of inhibition of MAO B,human recombinant MAO B,mainly competitive/mixed
same,Ki,human recombinant MAO B; [12],4.2 ± 0.3 µM
COc1ccccc1CNCCCCCC(=O)Nc1ccc(CCc2ccc(NC(=O)CCCCCNCc3ccccc3OC)cc2)cc1 [Compound 5],GI50,"[1]; Homo sapiens, LN-229, 48 h",< 1 µM
same,GI50,[1],0.8 ± 0.1 µM
same,Effect on MAO activity in LN-229 lysates,[2]; [6],concentration-dependent inhibition
same,Ki,"[2]; read-out: Ki for MAO activity in LN-229 lysates, kynuramine 20 μM, compound 0.05–8 μM",2 µM
same,Reversibility of MAO A inhibition,human recombinant MAO A,full reversibility
same,Ki,human recombinant MAO A; [7],0.62 ± 0.09 µM
same,Ki,human recombinant MAO A; [8],14 ± 2 µM
same,Mode of inhibition of MAO A,human recombinant MAO A,mainly competitive/mixed
same,Ki,human recombinant MAO A; [9],0.6 ± 0.1 µM
same,Time dependence of MAO A inhibition (Vo/VI ratio),human recombinant MAO A; kynuramine 10 μM,no time dependence of the inhibition was observed
same,Reversibility of MAO B inhibition,human recombinant MAO B,full reversibility
same,Ki,human recombinant MAO B; [10],0.16 ± 0.04 µM
same,Ki,human recombinant MAO B; [11],6 ± 1 µM
same,Mode of inhibition of MAO B,human recombinant MAO B,mainly competitive/mixed
same,Ki,human recombinant MAO B; [12],0.2 ± 0.1 µM
same,Time dependence of MAO B inhibition (Vo/VI ratio),human recombinant MAO B; kynuramine 10 μM,no time dependence of the inhibition was observed
same,Ki,human VAP-1 [3],~50 µM
"COc1ccccc1CNCCCCCCNCCCCCCCCNCCCCCCNCc1ccccc1OC [Compound 1, methoctramine, reference compound]",GI50,[1]; Homo sapiens,> 20 µM
same,Inhibition of VAP-1,human VAP-1 [4],very poorly active
same,Inhibition of SMOX,murine SMOX,more effective than 2
same,Ki,human recombinant MAO A; [9],290 ± 60 µM
same,Ki,human recombinant MAO B; [12],470 ± 50 µM
COc1ccccc1CNCCCCCCN1Cc2ccc3c4c(ccc(c24)C1)CN(CCCCCCNCc1ccccc1OC)C3 [Compound 6],GI50,"[1]; Homo sapiens, LN-229, 48 h",2 ± 0.9 µM
same,Ki,human recombinant MAO A; [9],37 ± 4 µM
same,Ki,human recombinant MAO B; [12],27 ± 4 µM
